Laboratory results: US11447481B2, “Microbiocidal oxadiazole derivatives” (SYNGENTA PARTICIPATIONS AG, priority 2017, dated 2022)

Columns and labels:
[1] = system: Glomerella lagenarium (Colletotrichum lagenarium); experiment: Fungicidal activity against Glomerella lagenarium (Colletotrichum lagenarium) liquid culture / cucumber / preventative (anthracnose); assay type: cell-based; conditions: Colletotrichum orbiculare, liquid culture (PDB), growth inhibition measured photometrically 3-4 days after application, compared to untreated control
Experimental: Mycelia fragments or conidia suspensions of a fungus prepared either freshly from liquid cultures of the fungus or from cryogenic storage, are directly mixed into nutrient broth. DMSO solutions of the test compound (max. 10 mg/ml) are diluted with 0.025% Tween20 by a factor of 50 and 10 µl of this solution is pipetted into a microtiter plate (96-well format). The nutrient broth containing the fungal spores/mycelia fragments is then added to give an end concentration of the tested compound. The test plates are incubated in the dark at 24° C. and 96% relative humidity. The inhibition of fungal growth is determined photometrically after 2 to 7 days, depending on the pathosystem, and percent antifungal activity relative to the untreated check is calculated.
Conidia of the fungus from cryogenic storage are directly mixed into nutrient broth (PDB potato dextrose broth). After placing a (DMSO) solution of test compound into a microtiter plate (96-well format), the nutrient broth containing the fungal spores is added. The test plates are incubated at 24° C. and the inhibition of growth is measured photometrically 3-4 days after application.

[2] = system: Puccinia recondita f. sp. tritici; experiment: Fungicidal activity against Puccinia recondita f. sp. tritici / wheat / leaf disc preventative (brown rust); assay type: in vivo; conditions: foliar, wheat leaf segments, preventative (inoculated 1 day after application), compared to untreated control
Experimental: (§1) Leaf disks or leaf segments of various plant species are cut from plants grown in a greenhouse. The cut leaf disks or segments are placed in multiwell plates (24-well format) onto water agar. The leaf disks are sprayed with a test solution before (preventative) or after (curative) inoculation. Compounds to be tested are prepared as DMSO solutions (max. 10 mg/ml) which are diluted to the appropriate concentration with 0.025% Tween20 just before spraying. The inoculated leaf disks or segments are incubated under defined conditions (temperature, relative humidity, light, etc.) according to the respective test system. A single evaluation of disease level is carried out 3 to 14 days after inoculation, depending on the pathosystem. Percent disease control relative to the untreated check leaf disks or segments is then calculated.
(§2) Wheat leaf segments cv. Kanzler are placed on agar in multiwell plates (24-well format) and sprayed with the formulated test compound diluted in water. The leaf disks are inoculated with a spore suspension of the fungus 1 day after application. The inoculated leaf segments are incubated at 19° C. and 75% rh under a light regime of 12 h light/12 h darkness in a climate cabinet and the activity of a compound is assessed as percent disease control compared to untreated when an appropriate level of disease damage appears in untreated check leaf segments (7-9 days after application).

[3] = system: Puccinia recondita f. sp. tritici; experiment: Fungicidal activity against Puccinia recondita f. sp. tritici / wheat / leaf disc curative (brown rust); assay type: in vivo; conditions: foliar, 24 h, wheat leaf segments, curative (applied 1 day after inoculation), compared to untreated control
Experimental: as §1
as §2, with “format).” for “format) and sprayed with the formulated test compound diluted in water.”, “segments” for “disks”, “fungus. Plates are stored in darkness at 19° C. and 75% rh. The formulated test compound diluted in water is applied” for “fungus”, “inoculation.” for “application.”, “The” for “The inoculated”, “(6-8” for “(7-9”

Phakopsora pachyrhizi = experiment: Fungicidal activity against Phakopsora pachyrhizi / soybean / leaf disc preventative (Asian soybean rust); assay type: in vivo; conditions: foliar, soybean leaf disks, compared to untreated control
Experimental: as §1
Soybean leaf disks are placed on water agar in multiwell plates (24-well format) and sprayed with the formulated test compound diluted in water. One day after application leaf discs are inoculated by spraying a spore suspension on the lower leaf surface. After an incubation period in a climate cabinet of 24-36 hours in darkness at 20° C. and 75% rh leaf disc are kept at 20° C. with 12 h light/day and 75% rh. The activity of a compound is assessed as percent disease control compared to untreated when an appropriate level of disease damage appears in untreated check leaf disks (12-14 days after application).

## Cc1cccc(=O)n1Cc1ccc(-c2noc(C(F)(F)F)n2)cc1 [Compound C-4, 6-methyl-1-[[4-[5-(trifluoromethyl)-1,2,4-oxadiazol-3-yl]phenyl]methyl]pyridin-2-one]
[1]
  inhibition of growth at 20 ppm: ≥ 80%
[2]
  pest or weed control at 200 ppm: ≥ 80%
[3]
  pest or weed control at 200 ppm: ≥ 80%
other
  melting point: 88 to 90 °C
Phakopsora pachyrhizi
  pest or weed control at 200 ppm: ≥ 80%

## O=c1ccccn1Cc1ccc(-c2noc(C(F)(F)F)n2)c(F)c1F [Compound C-12, 1-[[2,3-difluoro-4-[5-(trifluoromethyl)-1,2,4-oxadiazol-3-yl]phenyl]methyl]pyridin-2-one]
[1]
  inhibition of growth at 20 ppm: ≥ 80%
[2]
  pest or weed control at 200 ppm: ≥ 80%
[3]
  pest or weed control at 200 ppm: ≥ 80%
other
  melting point: 154 to 156 °C
Phakopsora pachyrhizi
  pest or weed control at 200 ppm: ≥ 80%

## O=c1ccccn1Cc1ccc(-c2noc(C(F)(F)F)n2)cc1 [Compound C-14, 1-[[4-[5-(trifluoromethyl)-1,2,4-oxadiazol-3-yl]phenyl]methyl]pyridin-2-one]
[1]
  inhibition of growth at 20 ppm: ≥ 80%
[2]
  pest or weed control at 200 ppm: ≥ 80%
[3]
  pest or weed control at 200 ppm: ≥ 80%
other
  melting point: 142 to 144 °C
Phakopsora pachyrhizi
  pest or weed control at 200 ppm: ≥ 80%

## O=c1ccc(Br)nn1Cc1ccc(-c2noc(C(F)(F)F)n2)cc1 [Compound C-2, 6-bromo-2-[[4-[5-(trifluoromethyl)-1,2,4-oxadiazol-3-yl]phenyl]methyl]pyridazin-3-one]
[1]
  inhibition of growth at 20 ppm: ≥ 80%
[2]
  pest or weed control at 200 ppm: ≥ 80%
[3]
  pest or weed control at 200 ppm: ≥ 80%
other
  melting point: 106.5 to 107.6 °C
Phakopsora pachyrhizi
  pest or weed control at 200 ppm: ≥ 80%

## N#Cc1ccc(=O)n(Cc2ccc(-c3noc(C(F)(F)F)n3)c(F)c2F)c1 [Compound C-11, 1-[[2,3-difluoro-4-[5-(trifluoromethyl)-1,2,4-oxadiazol-3-yl]phenyl]methyl]-6-oxo-pyridine-3-carbonitrile]
[1]
  inhibition of growth at 20 ppm: ≥ 80%
[2]
  pest or weed control at 200 ppm: ≥ 80%
[3]
  pest or weed control at 200 ppm: ≥ 80%
other
  melting point: 144 to 146 °C
Phakopsora pachyrhizi
  pest or weed control at 200 ppm: ≥ 80%

## Cc1ccn(C(C)c2ccc(-c3noc(C(F)(F)F)n3)cc2)c(=O)c1 (stereo not drawn) [Compound C-1]
[1]
  inhibition of growth at 20 ppm: ≥ 80%
[2]
  pest or weed control at 200 ppm: ≥ 80%
[3]
  pest or weed control at 200 ppm: ≥ 80%
other
  melting point: 117 to 120 °C
Phakopsora pachyrhizi
  pest or weed control at 200 ppm: ≥ 80%

## Cc1cccn(Cc2ccc(-c3noc(C(F)(F)F)n3)cc2)c1=O [Compound C-8, 3-methyl-1-[[4-[5-(trifluoromethyl)-1,2,4-oxadiazol-3-yl]phenyl]methyl]pyridin-2-one]
[1]
  inhibition of growth at 20 ppm: ≥ 80%
[2]
  pest or weed control at 200 ppm: ≥ 80%
[3]
  pest or weed control at 200 ppm: ≥ 80%
other
  melting point: 115 to 117 °C
Phakopsora pachyrhizi
  pest or weed control at 200 ppm: ≥ 80%

## N#Cc1ccc(=O)n(Cc2ccc(-c3noc(C(F)(F)F)n3)cc2)c1 [Compound C-13, 6-oxo-1-[[4-[5-(trifluoromethylyl)-1,2,4-oxadiazol-3-yl]phenyl]methyl]pyridine-3-carbonitrile]
[1]
  inhibition of growth at 20 ppm: ≥ 80%
[2]
  pest or weed control at 200 ppm: ≥ 80%
[3]
  pest or weed control at 200 ppm: ≥ 80%
other
  melting point: 174 to 176 °C
Phakopsora pachyrhizi
  pest or weed control at 200 ppm: ≥ 80%

## O=c1ccc(C(F)(F)F)cn1Cc1ccc(-c2noc(C(F)(F)F)n2)cc1 [Compound C-9, 5-(trifluoromethyl)-1-[[4-[5-(trifluoromethyl)-1,2,4-oxadiazol-3-yl]phenyl]methyl]pyridin-2-one]
[1]
  inhibition of growth at 20 ppm: ≥ 80%
[2]
  pest or weed control at 200 ppm: ≥ 80%
[3]
  pest or weed control at 200 ppm: ≥ 80%
other
  melting point: 131 to 133 °C
Phakopsora pachyrhizi
  pest or weed control at 200 ppm: ≥ 80%

## COc1nn(Cc2ccc(-c3noc(C(F)(F)F)n3)cc2)c(=O)n1C [Compound B-4, 5-methoxy-4-methyl-2-[[4-[5-(trifluoromethyl)-1,2,4-oxadiazol-3-yl]phenyl]methyl]-1,2,4-triazol-3-one]
[1]
  inhibition of growth at 20 ppm: ≥ 80%
[2]
  pest or weed control at 200 ppm: ≥ 80%
[3]
  pest or weed control at 200 ppm: ≥ 80%
other
  melting point: 129 to 130.8 °C
Phakopsora pachyrhizi
  pest or weed control at 200 ppm: ≥ 80%

## Cc1ccc(=O)n(Cc2ccc(-c3noc(C(F)(F)F)n3)cc2)c1 [Compound C-10, 5-methyl-1-[[4-[5-(trifluoromethyl)-1,2,4-oxadiazol-3-yl]phenyl]methyl]pyridin-2-one]
[1]
  inhibition of growth at 20 ppm: ≥ 80%
[2]
  pest or weed control at 200 ppm: ≥ 80%
[3]
  pest or weed control at 200 ppm: ≥ 80%
other
  melting point: 174 to 176 °C
Phakopsora pachyrhizi
  pest or weed control at 200 ppm: ≥ 80%

## Cn1nnn(CCc2ccc(-c3noc(C(F)(F)F)n3)cc2)c1=O [Compound D-1, 1-methyl-4-[2-[4-[5-(trifluoromethyl)-1,2,4-oxadiazol-3-yl]phenyl]ethyl]tetrazol-5-one]
[1]
  inhibition of growth at 20 ppm: ≥ 80%
[2]
  pest or weed control at 200 ppm: ≥ 80%
[3]
  pest or weed control at 200 ppm: ≥ 80%
other
  melting point: 92 to 94 °C
Phakopsora pachyrhizi
  pest or weed control at 200 ppm: ≥ 80%
